# In patent USRE48461E1, “Modulation of androgen receptor expression” (Ionis Pharmaceuticals, Inc., priority 2012, dated 2021):
# Oligonucleotides are written 5' to 3', each unit as a sugar letter and its base; * is a phosphorothioate linkage, no mark a phosphodiester; rarer units and linkages stand in square brackets, end groups in braces. Plain capitals give the bases only. k = constrained ethyl (cEt); [5mC] = 5-methylcytosine; d = 2'-deoxy (DNA)
# Experiments:
# [1] = tested on: AR mRNA; test: Antisense inhibition of human AR in HuVEC cells, single concentration (electroporation, qRT-PCR RTS3559); type: cell-based; details: electroporation, approximately 24 hours, relative to untreated control
# Summary of the method: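 AR mRNA levels were measured with human primer-probe set RTS3559 and adjusted for total RNA (RIBOGREEN). Cells were HuVEC, with each antisense oligonucleotide delivered by electroporation at one concentration.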
# [2] = tested on: AR mRNA; test: AR mRNA in LnCaP cells by free uptake (hAR_LTS00943); type: cell-based, human; details: 24 hrs
# Description: Cells were plated at a concentration of 4,000 cells/well in 96-well plates. ISIS oligonucleotides, specified in Table 68, were added individually at 0.02 μM, 0.10 μM, 0.50 μM, 2.50 μM, or 10.00 μM. After an incubation period of 24 hrs, mRNA levels were measured using primer probe set hAR_LTS00943.
# [3] = tested on: AR mRNA; test: Dose-dependent antisense inhibition of human AR in HuVEC cells (electroporation, qRT-PCR RTS3559, IC50); type: cell-based; details: HuVEC, electroporation, approximately 16 hours
# Summary of the method: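 HuVEC cells dosed with antisense oligonucleotides by electroporation and treated approximately 16 hours. AR mRNA quantified by real-time qPCR with primer probe set RTS3559 and normalised to total RNA by RIBOGREEN; IC50 from dose-response.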
# [4] = tested on: AR mRNA; test: AR mRNA in liver, heart, skeletal muscle, kidney, prostate of cynomolgus monkeys; type: in vivo; details: cynomolgus monkey, 40 mg/kg subcutaneously; for Percent Inhibition of AR mRNA relative to the PBS control, Heart: weeks 1 to 6, Heart; for Percent Inhibition of AR mRNA relative to the PBS control, Kidney: weeks 1 to 6, Kidney; for Percent Inhibition of AR mRNA relative to the PBS control, Liver: weeks 1 to 6, Liver; for Percent Inhibition of AR mRNA relative to the PBS control, Prostate: weeks 1 to 6, Prostate; for Percent Inhibition of AR mRNA relative to the PBS control, Skeletal Muscle: weeks 1 to 6, Skeletal Muscle
# Description: Cynomolgus monkeys were treated with ISIS antisense oligonucleotides selected from studies described above. Antisense oligonucleotide efficacy and tolerability were evaluated. The human antisense oligonucleotides tested are cross-reactive with the rhesus genomic sequence (GENBANK Accession No. NW_001218131.1 truncated from nucleotides 134001 to 308000 and designated herein as SEQ ID NO: 189). The target start site and target region of each oligonucleotide to SEQ ID NO: 189, as well as the details of their chemistry and sequence, is presented in Table 133.
# RNA was extracted from liver, heart, skeletal muscle, kidney, and prostate tissues for real-time PCR analysis of AR using primer probe set RTS3559. The results were normalized to RIBOGREEN®. Results are presented as percent inhibition of AR mRNA, relative to PBS control.
Substance,Percent inhibition of AR mRNA ([2]; 0.02 μM) [%],Percent inhibition of AR mRNA ([2]; 0.1 μM) [%],Percent inhibition of AR mRNA ([2]; 0.5 μM) [%],Percent inhibition of AR mRNA ([2]; 10 μM) [%],"Percent Inhibition of AR mRNA relative to the PBS control, Heart [4] [%]","Percent Inhibition of AR mRNA relative to the PBS control, Kidney [4] [%]","Percent Inhibition of AR mRNA relative to the PBS control, Liver [4] [%]","Percent Inhibition of AR mRNA relative to the PBS control, Prostate [4] [%]","Percent Inhibition of AR mRNA relative to the PBS control, Skeletal Muscle [4] [%]","percent inhibition of AR, 46.9 nM ([3]; Table 36) [%]","percent inhibition of AR, 187.5 nM ([3]; Table 36) [%]","percent inhibition of AR, 750.0 nM ([3]; Table 36) [%]","percent inhibition of AR, 3000.0 nM ([3]; Table 36) [%]",IC50 ([3]; Table 36) [nM],further results
584163 (kG*kA*kA*d[5mC]*dA*dT*dT*dA*dT*dT*dA*dG*dG*k[5mC]*kT*kA) [compound 584163],0,0,19,70,53,90,98,58,73,–,–,–,–,–,"% inhibition ([1]; Table 24, 1,000 nM oligonucleotide): 81%; percent inhibition of AR, 46.9 nM ([3]; Table 35): 19%; percent inhibition of AR, 187.5 nM ([3]; Table 35): 37%; percent inhibition of AR, 750.0 nM ([3]; Table 35): 74%; percent inhibition of AR, 3000.0 nM ([3]; Table 35): 90%; IC50 ([3]; Table 35): 250 nM"
584269 (k[5mC]*k[5mC]*kT*dT*dA*dT*dG*dG*dA*dT*dG*d[5mC]*dT*kG*k[5mC]*kT) [compound 584269],0,0,0,23,72,92,96,41,76,6,26,69,92,340,"% inhibition ([1]; Table 25, 1,000 nM oligonucleotide): 57%"
584468 (k[5mC]*kA*kT*dT*dG*dT*dA*d[5mC]*dT*dA*dT*dG*d[5mC]*k[5mC]*kA*kG) [compound 584468],0,0,10,73,33,88,97,50,53,9,26,60,90,370,"% inhibition ([1]; Table 27, 1,000 nM oligonucleotide): 64%"
